From PMC4320118, “Micheliolide Derivative DMAMCL Inhibits Glioma Cell Growth In Vitro and In Vivo” (PLoS ONE, 2015)
Read-outs that look alike come from different tables or passages of the source.

How the values were obtained:
[1] = Locomotor activity (neurological effects); assay type: in vivo, Wistar rats
Description: Locomotor activity was used to assess neurological effects of DMAMCL. Wistar rats (150–170 g) were divided into the following 3 groups (10 rats /group): 1) vehicle control, 2) DMAMCL at 100 mg/kg, and 3) DMAMCL at 300 mg/kg. DMAMCL was administered orally once a day for 21 days. Rat locomotor activities were monitored on days 1, 10, 21 and 28 using Aninal Behavioral Analysis System (AniLab Software and Instruments Co, Ltd, China). Briefly, rats were gently placed in the locomotor activity boxes equipped with infrared photobeams and individual total distance (cm) of rat running was recorded during a test period of 60 min. The test apparatus was cleaned to eliminate odors for the next test after each animal was tested.

intracerebral C6 glioma = test system: intracerebral C6 glioma
Description: Adult Wistar rats (120–180 g, age 4–8 weeks) were obtained from the Animal Center at the Academy of Military Medical Sciences and had animal certification of SCXK (army) 2012–001. Animals were housed in collective cages at a temperature of 23 ± 2°C and relative humidity of 40% to 70%. All rats had free access to food and water.
Intracerebral tumor implantations were performed according to the following procedures. C6 tumors were maintained as subcutaneous tumors in rats. Subcutaneous masses were excised, dissociated, and mixed with matrigel on ice (BD Biosciences) at a ratio of 1:1. After removing of the hair on the skull, a small midline incision in the scalp was gently made under anesthesia with 2% sodium pentobarbital at a dose of 40mg/kg. C6 cells in matrigel (0.1 mL of the cell/matrigel mixture containing 10^8 cells /mL) were carefully injected into the right frontal cortex by a special 16-gauge stainless steel needle with 5 mm needle tubing. Implantation coordinates were determined from Swanson’s Stereotaxic Atlas guidelines (1992): 1.0 mm anterior and 3.0 mm lateral to bregma, at a depth of 5.0 mm from the brain surface. […] The syringe was slowly retracted, the hole was sealed with bone wax, and the incision was sutured under aseptic conditions. […] Then 0.015 mg/kg buprenorphine (s.c.) was administered to relieve the pain. The rats were replaced in cages and allowed to recover from anesthesia.
Rats were divided into the following 5 treatment groups 24 h after surgery (n = 9 rats /group) according to rat weight: 1) vehicle (normal saline: NS); 2) vincristine (VCR) at 100μg/kg; 3) DMAMCL at 25 mg/kg; 4) DMAMCL at 50 mg/kg; and 5) DMAMCL at 100 mg/kg. All drugs were prepared in NS and administered once daily for 21 days. DMAMCL was administered orally, and VCR was injected into the caudal vein. Rats were weighed and monitored for signs of mortality daily. Twenty one days into the treatment, rats were euthanized via CO2 asphyxiation under deep anesthesia by sodium pentobarbital. Brains and tumors were separated from the cerebellum and medulla oblongata, and weighed, photographed, fixed in formalin, and embedded in paraffin for sectioning. The tumor: brain weight ratio was assessed to observe the degree of tumor cell growth in brain. Serial sections (5 μm in thickness) were stained by hematoxylin and eosin (HE).

AML models = conditions: cited from earlier work
U-87MG cells = experiment: Cell proliferation MTT assay, U-87MG; assay type: cell-based; conditions: Homo sapiens, 72 h
Description: C6 and U-87MG cell lines were obtained from the American Type Culture Collection (ATCC) and cultured in our laboratory. Rat C6 glioma cells were cultured in F12K nutrient medium (Gibco, Grand Island, […]) supplemented with 15% horse serum (Auckland, NZ), 2.5% fetal bovine serum (FBS), 100 U/mL penicillin, and […] streptomycin (Gibco, Paisley, Scotland, UK). Human U-87MG cells were cultured in minimum essential medium (MEM) supplemented with 10% FBS, 1% nonessential amino acids, 100 U/mL penicillin, and […] streptomycin. Cells were cultured under a humidified atmosphere containing 5% CO2 at 37°C, and medium was changed every 1 to 2 days.
Tumor cells were seeded in 96-well plates at a density of 3500 cells/well. After 24 h in culture, cells were exposed to different concentrations of DMAMCL or medium alone (control) for 72 h. Cell viability was determined by MTT assays. Briefly, MTT regent (0.5 mg/mL) was added to wells, and cells were incubated for 4 h at 37°C. After removing the supernatant, 200 μL of dimethyl sulfoxide (DMSO) (Fluka, Switzerland) was added to dissolve formazan crystals. The absorbance at 570 nm was measured by a microplate reader (Thermo Labsystems, Helsinki, Finland). Control absorbance was taken as 100%. The absorbance of DMAMCL-treated cells was taken as percentage survival. […]

[2] = test system: Bcl-2 and Bax in C6 cells; experiment: Western blotting of Bcl-2 and Bax, C6 cells; assay type: cell-based, rat; conditions: 60 μM and 120μM, 24 hr
Description: The cellular proteins were extracted from 10^7 cultured cells after drug treatments using RIPA lysis buffer (Promega, USA). Western blotting analysis was performed to determine cellular responses targeting apoptosis-related proteins including Bcl-2 and Bax. Briefly, C6 and U-87MG cells were treated with different doses of DMAMCL for 24 hr at 37°C. Then cells were washed twice with cold phosphate buffered saline (PBS) and lysed in RIPA buffer containing 1mmol/l PMSF (Pheylmethylsulfonyl fluoride, Sigma, USA) on ice for 30 min. The total proteins of cells were obtained by centrifugation at 12000 rpm for 15 min. Next, the lysate proteins were resolved by SDS-PAGE and transferred to the Immobilon-P membranes (Millipore, Billerica, MA, USA). The membranes were blocked by 5% nonfat milk in Tris-buffered saline with 0.1% Tween 20 (TBST) and immunoblotted with the antibodies against β-actin, Bcl-2 and Bax (Cellsignaling Technology, USA) at 4°C overnight. Then membranes were incubated with HRP-conjugated secondary antibody for 1.5 hr at room temperature. The targeting antibodies were stained with enhanced chemiluminescent reagents (Millipore, Billerica, MA, USA) and visualized by ChemiScope 3600 Mini systerm (Clinx Science Instruments, China).

[3] = DMAMCL 25 mg/kg orally once daily for 21 days
[4] = DMAMCL 50 mg/kg orally once daily for 21 days
[5] = DMAMCL 100 mg/kg orally once daily for 21 days

CC1=C2CC[C@@](C)(O)[C@@H]2[C@H]2OC(=O)[C@@H](CN(C)C)[C@@H]2CC1 [DMAMCL, dimethylaminomicheliolide]
Locomotor activity ([1]; 100mg/kg orally once a day for 21 days, observation period): as active as vehicle group | Locomotor activity, total distance ([1]; 300mg/kg orally once a day, following days): still less active than vehicle group, but without significant statistical difference | Locomotor activity, total distance ([1]; 300mg/kg orally, first day): decreased compared with vehicle group | Locomotor activity, total distance ([1]; 300mg/kg, within one week of DMAMCL withdrawal): no significant changes were observed | Body weight End (intracerebral C6 glioma; [3]): 223.8 ± 13.1 g | Inhibition (percent decrease in tumor weight compared to the vehicle group) (intracerebral C6 glioma; [3]): 59.9% | Tumor weight (intracerebral C6 glioma; [3]): 0.29 ± 0.20 g | Tumor/brain (intracerebral C6 glioma; [3]): 15.0 ± 9.5 % | Rats surviving to the end of the study (intracerebral C6 glioma; DMAMCL 25 mg/kg, 21 days): 89% | Body weight End (intracerebral C6 glioma; [4]): 227.5 ± 11.9 g | Inhibition (percent decrease in tumor weight compared to the vehicle group) (intracerebral C6 glioma; [4]): 78.7% | Tumor weight (intracerebral C6 glioma; [4]): 0.15 ± 0.12 g | Tumor/brain (intracerebral C6 glioma; [4]): 6.3 ± 3.9 % | Rats surviving to the end of the study (intracerebral C6 glioma; DMAMCL 50 mg/kg, 21 days): 89% | Body weight End (intracerebral C6 glioma; [5]): 224.0 ± 12.1 g | Inhibition (percent decrease in tumor weight compared to the vehicle group) (intracerebral C6 glioma; [5]): 87.5% | Signs of toxicity in tumor-bearing rats (intracerebral C6 glioma; [5]): no signs of systemic or intracranial toxicity | Tumor weight (intracerebral C6 glioma; [5]): 0.09 ± 0.09 g | Tumor/brain (intracerebral C6 glioma; [5]): 4.2 ± 3.1 % | Histopathology of brain tissue (HE) (intracerebral C6 glioma; DMAMCL 100 mg/kg, 21 days): appeared similar to normal brain tissues | Rats surviving to the end of the study (intracerebral C6 glioma; DMAMCL 100 mg/kg, 21 days): 100% | Therapeutic efficacy in AML models (AML models): superior therapeutic efficacy | IC50 (U-87MG cells; read-out: IC50): 20.6 ± 1.61 µM | IC50 (U-87MG cells; read-out: x0 (midpoint of logistic fit, Fig 3B) (converted)): 20.6 ± 1.6 µM | Bax expression (Western blot) [2]: up-regulated Bax expression | Bcl-2 expression (Western blot) [2]: down-regulated Bcl-2 expression
